According to US8173133B2, “Acyl pseudodipeptides which carry a functionalized auxiliary arm” (OM Pharma, priority 1999, dated 2012):
In brackets after ≈: the same amount, converted by molar mass. Where two headings read alike, the source gives them in different places.

Columns and labels:
[1] = system: murine macrophage cells; assay: nitric oxide production by murine macrophage cells (Griess); format: cell-based, C57/BL6 mice; settings: for Max concentration: concentration at maximum amplitude; for EC50 conc: concentration corresponding to 50% of maximum amplitude; for Min concentration: lowest concentration inducing a significant response
Description: Six-week old male C57/BL6 mice are killed by CO2 inhalation. The hip, femur, tibia and posterior appendage bones are removed. The bone marrow is extracted from the bone lumen by injecting Dulbecco's Modified Eagle Medium (DH medium) from the end portions which had been excised. The stem cells are washed and resuspended (approximate cell concentration 4000 cells/ml) in DH medium supplemented with 20% equine serum (SH) and 30% L929 cell supernatant. L929 is a murine fibroblast cell line the supernatant fluid of which is rich in growth factor for macrophage cells (M-CSF). The cell suspension is divided into Petri dishes which are incubated for 8 days in an incubator at 37° C. under 8% CO2 and a moisture saturated atmosphere.
After 8 days, the stem cells have differentiated into mature macrophage cells. The macrophage cells are scraped off by rapid cooling, washed and resuspended in DH medium supplemented with 5% foetal calf serum (FCS), amino acids and antibiotics. The cell density is adjusted to 700 000 cells/ml.
Products previously dissolved in DH medium supplemented with 5% FCS, amino acids and antibiotics are serially diluted directly in microtiter plates. The products are tested in triplicates and each microtiter plate comprises a negative control containing plain medium. The final volume in each well is 100 μl.
100 μl of cell suspension are added to diluted solutions of such products and the cells are incubated for 22 hours in an incubator at 37° C., under 8% CO2 and a moisture saturated atmosphere. At the end of the incubation period with the products, 100 μl of supernatant are withdrawn and the nitrite concentration is determined by running a Griess reaction.
100 μl of Griess reagent (5 mg/ml of sulfanilamide+0.5 mg/ml of N-(1-naphtylethylene diamine hydrochloride)) in 2.5% aq. phosphoric acid, are added to each well. The microtiter plates are read with a spectrophotometer at 562 nm wavelength against a reference sample at 690 nm. The nitrite concentration is proportional to nitric oxide content being formed. The nitrite content is determined based on a standard curve.
The results are given as mean value±standard deviation and plotted as a dose versus response curve.
From this dose versus response curve, 3 curve variables are computed:
Max: maximum curve amplitude and corresponding concentration
EC50: concentration corresponding to 50% of maximum amplitude
Min: lowest concentration inducing a significant proliferation corresponding to the blank±3× standard deviation value
Concentration values corresponding to EC50 and Min are determined from line segments joining different points on the curve.
If the curve has no plateau phase but an ascending configuration for the highest concentration being tested, a “>” sign is shown before “Max” and “EC50” values.

[2] = system: human peripheral blood mononuclear cells; assay: inhibition of E. coli LPS-induced α TNF production in human peripheral blood mononuclear cells; format: cell-based; settings: product 10 μg/ml; for 50% inhibition LPS: LPS concentration at which α TNF production is 50% of control; for max. Inhibition LPS: LPS concentration corresponding to maximum inhibition
Protocol: Mononuclear cells of peripheral blood are recovered from buffy coats of 6 healthy donors. Such buffy coat cells are resuspended and mononuclear cells are isolated by centrifugation on a Ficoll-Paque gradient (Amersham Pharmacia). Purified mononuclear cells are resuspended into RPMI-1640 medium supplemented with 10% FCS, antibiotics, mercaptoethanol and L-glutamine. Cell concentration is adjusted to 2×10^6 viable cells/ml.
Product mediated Inhibition is determined by preincubating those products with mononuclear cells, and adding, 1 hour later, serially diluted solutions of LPS capable of inducing α TFN production. […] E. coli LPS is serially diluted (10-fold dilution) to be in the range of 1 to 0.00001 μg/ml
50 μl of 10 μg/ml dilute product solutions in RPMI 1640 medium are dispensed into a microtiter plate. Each assay (10 μg/ml product concentration+dilute E. coli LPS) is run in triplicates and each microtiter plate includes a negative control comprised of plain medium. LPS-induced α TNF production (without inhibitor) is determined by adding E. coli LPS dilutions to RPMI medium.
100 μl of the cell suspension are added to each well containing dilutions of either product or control. Cells are incubated with the products for 1 hour in an incubator at 37° C., under 5% CO2 and a moisture saturated atmosphere.
At the end of the pre-incubation period, 50 μl of serially diluted solutions of E. coli LPS are added. Incubation of mononuclear cells with the product and LPS is extended for 18 hours. At the end of the cell activation period, the microtiter plates are centrifuged, and the supernatants are pooled and frozen at −80° C. as aliquots until time of ELISA assay.
Concentration of αTNF secreted by mononuclear cells is determined by chemiluminescent ELISA (QuantiGlo #QTAOO R&D kit). 4-fold dilutions of supernatant fluid are dispensed into each well of the microtiter plate to which anti-human αTNF antibodies are bound. The microtiter plate is incubated for 4 hours at room temperature. After washing, peroxidase-conjugated anti-human αTNF antibody is added. Following a 2 hour incubation period and a thorough washing, a chemiluminescent substrate is added and chemilunescence is read after 20 minutes. αTNF content in the supernatant fluid is determined with respect to a standard curve covering the 7000 to 0.7 pg/ml range.
Inhibition is characterized by the E. coli LPS concentration which elicits 50% production of α TNF during co-incubation in comparison to a control including only RPMI. This concentration increases as product inhibition activity becomes stronger. Knowing inhibition values of α TNF production, this concentration is given by calculating 100-(αTNF production induced by product and LPS)/(αTNF production induced by LPS alone)*100. From these inhibition data, concentration is determined by linear regression along the line segment which joins 2 LPS dilutions giving approx. 50% inhibition.
Product ability to inhibit α TNF production in mononuclear cells in response to LPS is further characterized by maximum inhibition. […] Results are calculated from a representative experience using all products.

[3] = system: Limulus Amoebocyte Lysate
[4] = 1 EU = 0.08 ng E. coli 055:B5 LPS
[5] = acyl-dipeptide-like compounds, diluted 0.1 mg/ml solution

Row | Structure (SMILES) | Max concentration [1] [µg/mL] | EC50 conc [1] [µg/mL] | Min concentration [1] [µg/mL] | max. Inhibition [2] [%] | 50% inhibition LPS [2] [µg/mL] | max. Inhibition LPS [2] [µg/mL] | LAL EU/mg of product [3] | LAL ng of LPS equivalent per mg of product [3] | LAL ng of LPS equivalent per mg of product [3, 4] | LAL EU/mg of product [3, 5]
1 | CCCCCCCCCCCC(=O)O[C@H](CCCCCCCCCCC)CC(=O)NC(CCOP(=O)(O)O)C(=O)NCCCC(COC(=O)CCCCC(O)CO)NC(=O)C[C@H](O)CCCCCCCCCCC (stereo partly drawn) [OM-197-FV6, 3-[(R)-dodecanoyloxytetradecanoylamino]-4oxo-5-aza-9-[(R)-3-hydroxytetradecanoylamino]-decan-1,10-diol 1-dihydrogenphate 10-(6,7-dihydroxyheptanoate)] | 25.6 | 1.49 (≈ 1.38 µM) | 0.20 | 100 | >1 | 0.014 | 540 EU/mg of product | 43 ng of LPS equivalent per mg of product |  | 
2 | CCCCCCCCCCCC(=O)O[C@H](CCCCCCCCCCC)CC(=O)NC(CCOP(=O)(O)O)C(=O)NCCCC(COC(=O)CCCCCO)NC(=O)C[C@H](O)CCCCCCCCCCC (stereo partly drawn) [OM-197-FV8, 3-[(R)-3-dodecanoyloxytetradecanoylamino]-4-oxo-5-aza-9-[(R)-3-hydroxytetradecanoylamino]-decan-1,10-diol 1-dihydrogenphosphate 10-(6-hydroxyhexanoate)] | 51 | 7.89 (≈ 7.53 µM) | 1.45 | 100 | >1 | 0.0033 | 1820 EU/mg of product | 145.6 ng of LPS equivalent per mg of product |  | 
3 | CCCCCCCCCCCC(=O)O[C@H](CCCCCCCCCCC)CC(=O)N[C@H](CC(=O)N[C@@H](CCCCN)C(=O)O)C(=O)NCCC[C@H](COC(=O)CCCCCN)NC(=O)C[C@H](O)CCCCCCCCCCC [OM-197-Lys-AC] | > 50 | > 11.06 | 1.46 | 100 | >1 | 0.001 | <2.5 EU/mg of product | <0.2 ng of LPS equivalent per mg of product |  | 
4 | CCCCCCCCCCCC(=O)O[C@H](CCCCCCCCCCC)CC(=O)N[C@H](CC(=O)N[C@@H](CCCCN)C(=O)O)C(=O)NCCC[C@H](CO)NC(=O)C[C@H](O)CCCCCCCCCCC [OM-197-Lys] | 40 | 2.23 (≈ 2.24 µM) | < 0.47 | 100 | 0.70 | 0.0055 | 3 EU/mg of product | 0.24 ng of LPS equivalent per mg of product |  | 
5 | CCCCCCCCCCCC(=O)O[C@H](CCCCCCCCCCC)CC(=O)N[C@H](CC(=O)O)C(=O)NCCC[C@H](CO)NC(=O)C[C@H](O)CCCCCCCCCCC [OM-197-MC, N—[(R)-3-dodecanoyloxytetradecanoyl]-D-aspartic acid, α-N-{(4R)-5-hydroxy-4[(R)-3-hydroxytetradecanoylamino]-pentyl}amide] | 51 | 1.23 (≈ 1.42 µM) | 0.15 | 100 | 1 | 0.0043 | 88.6 EU/mg of product | 7.4 ng of LPS equivalent per mg of product |  | 
6 | CCCCCCCCCCCC(=O)O[C@H](CCCCCCCCCCC)CC(=O)N[C@H](CC(=O)O)C(=O)NCCC[C@H](COC(=O)CCCCCNC(=O)CCC(=O)O)NC(=O)C[C@H](O)CCCCCCCCCCC [OM-197-MC-AC-Succ, N—[(R)-3-dodecanoyloxytetradecanoyl]-D-aspartic acid, α-N-{(4R)-5-(6-succinylamidohexanoxyloxy)-4[(R)-3-hydroxy-tetradecanoylamino]pentyl}amide] | > 16 | 0.72 (≈ 0.666 µM) | 0.28 | 100 | >1 | 0.044 | <0.05 EU/mg of product | <0.004 ng of LPS equivalent per mg of product |  | 
7 | CCCCCCCCCCCC(=O)O[C@H](CCCCCCCCCCC)CC(=O)N[C@H](CC(=O)O)C(=O)NCCC[C@H](COC(=O)CCCCCNC(=O)CCC(=O)OC[C@H]1O[C@@H](n2cc(C)c(=O)[nH]c2=O)C[C@@H]1N=[N+]=[N-])NC(=O)C[C@H](O)CCCCCCCCCCC [OM-197-MC-AC-Succ-AZT] | > 100 | > 74.89 | 55.98 | 100 | 0.45 | 0.0005 |  |  | 0.11 ng of LPS equivalent per mg of product | 1.34 EU/mg of product
8 | CCCCCCCCCCCC(=O)O[C@H](CCCCCCCCCCC)CC(=O)N[C@H](CC(=O)O)C(=O)NCCC[C@H](COC(=O)CCCCCNC(=O)CCC(=O)OC[C@@H]1C=C[C@H](n2cc(C)c(=O)[nH]c2=O)O1)NC(=O)C[C@H](O)CCCCCCCCCCC [OM-197-MC-AC-Succ-d4T] | 12.5 | 1.15 (≈ 0.893 µM) | 0.56 | 100 | 0.64 | 0.00016 |  |  | 0.08 ng of LPS equivalent per mg of product | 1.05 EU/mg of product
9 | CCCCCCCCCCCC(=O)O[C@H](CCCCCCCCCCC)CC(=O)N[C@H](CC(=O)O)C(=O)NCCC[C@H](COC(=O)CCCCC(O)CO)NC(=O)C[C@H](O)CCCCCCCCCCC (stereo partly drawn) [OM-197-MC-FV5, N—[(R)-3-dodecanoyloxytetradecanoylamino]-D-aspartic acid, α-N-{(4R)-5-hydroxy-4-[(R)-3-hydroxytetra-decanoylamino]-pentyl}amide 5-O-(6,7-dihydroxyheptanoate)] | 16 | 2.56 (≈ 2.53 µM) | 0.67 | 100 | >1 | 0.016 | 49.3 EU/mg of product | 3.9 ng of LPS equivalent per mg of product |  | 
